Source: ChEMBL document CHEMBL2396603, “Heterocyclic modification of a novel bicyclo[3.1.0]hexane NPY1 receptor antagonist” (Bioorg Med Chem Lett, 2013)
In brackets after ≈: the same amount, converted by molar mass. Activity calls are given as the source filed them. No cut-off for these calls is given here.

Key:
[1] = molecular target: T1, Neuropeptide Y receptor type 1 (Homo sapiens, UniProt P25929); assay: Displacement of [125I]PYY from NPY1 receptor in human SK-N-MC cells after 1 hr by microbeta scintillation counting analysis; assay type: cell-based
T1 sequence (P25929 whole entry): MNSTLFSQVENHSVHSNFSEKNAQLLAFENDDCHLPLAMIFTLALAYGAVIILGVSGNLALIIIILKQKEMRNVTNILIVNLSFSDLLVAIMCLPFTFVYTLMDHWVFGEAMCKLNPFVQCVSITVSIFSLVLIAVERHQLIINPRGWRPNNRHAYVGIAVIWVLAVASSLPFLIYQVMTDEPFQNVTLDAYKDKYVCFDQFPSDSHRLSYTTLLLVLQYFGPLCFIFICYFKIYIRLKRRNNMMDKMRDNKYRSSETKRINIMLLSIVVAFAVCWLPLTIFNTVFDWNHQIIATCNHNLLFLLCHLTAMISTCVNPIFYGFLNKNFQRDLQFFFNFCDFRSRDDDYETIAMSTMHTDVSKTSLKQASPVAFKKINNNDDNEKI

[2] = Aqueous solubility of the compound in 40% aqueous trappsol; assay type: physicochemical
Rattus norvegicus [3] = assay: Antiobesity activity in Sprague-Dawley rat spontaneous nocturnal feeding model assessed as reduction in food intake at 35.6 to 60 mg/kg, po administered 2.5 hrs before onset of darkness measured during first hr; assay type: functional, organism-based
[4] = Oral bioavailability in rat at 20 mg/kg; assay type: ADME, organism-based; conditions: in vivo
[5] = Bioavailability in rat at 10 mg/kg, ip; assay type: ADME, organism-based; conditions: in vivo
[6] = Drug uptake in rat brain at 10 mg/kg, ip after 15 mins; assay type: ADME, organism-based; design: dose 10 mg/kg, route intraperitoneal; conditions: read-out: Drug uptake
Rattus norvegicus [7] = assay: Antiobesity activity in Sprague-Dawley rat spontaneous nocturnal feeding model assessed as reduction in food intake at 10 to 30 mg/kg, ip administered 1 hr before onset of darkness measured during first hour and first 3 hrs of darkness; assay type: functional, organism-based

Structure (SMILES) | IC50 [1] [µM] | further results
CCOc1cccc(C2(N3CCN(c4cnccn4)CC3)C3CC(C)CC32)c1 (stereo unspecified) | 0.265 | 
CCOc1cccc(C2(N3CCN(c4cccnc4)CC3)C3CC(C)CC32)c1 (stereo unspecified) | 0.892 | 
CCOc1cccc(C2(N3CCN(c4ncccn4)CC3)C3CC(C)CC32)c1 (stereo unspecified) | 0.054 | solubility [2]: 10000 µg/mL (≈ 26.4 mM)
CCOc1cccc(C2(N3CCN(c4ccccc4N)CC3)C3CC(C)CC32)c1 (stereo unspecified) | > 10 | 
CCOc1cccc(C2(N3CCNCC3)C3CC(C)CC32)c1 (stereo unspecified) | > 10 | 
CCOc1cccc(C2(N3CCN(c4ncncn4)CC3)C3CC(C)CC32)c1 (stereo unspecified) | 4.27 | 
CCOc1cccc(C2(N3CCN(c4ccc(Cl)nn4)CC3)C3CC(C)CC32)c1 (stereo unspecified) | > 10 | 
CCOc1cccc(C2(N3CCN(c4cncnc4)CC3)C3CC(C)CC32)c1 (stereo unspecified) | 5.03 | 
CCOc1cccc(C2(N3CCN(c4cccc(OC)n4)CC3)C3CC(C)CC32)c1 (stereo unspecified) | > 10 | 
CCOc1cccc(C2(N3CCN(c4ccncc4)CC3)C3CC(C)CC32)c1 (stereo unspecified) | > 10 | 
CCOc1cccc(C2(N3CCN(c4ccccc4)CC3)C3CC(C)CC32)c1 (stereo unspecified) | 0.062 | 
CCOc1cccc(C2(N3CCN(c4cccnn4)CC3)C3CC(C)CC32)c1 (stereo unspecified) | 4.38 | 
CCOc1cccc(C2(N3CCN(Cc4ccccc4)CC3)C3CC(C)CC32)c1 (stereo unspecified) | > 10 | 
CCOc1cccc(C2(N3CCN(c4ccccn4)CC3)C3CC(C)CC32)c1 (stereo unspecified) | 0.042 | Activity (Rattus norvegicus [3]): Active; bioavailability [4]: 53%; solubility [2]: > 50000 µg/mL; bioavailability [5]: 40%; concentration at 0.25 h [6]: > 100 nM; Activity (Rattus norvegicus [7]): Active
